Data reported in ChEMBL document CHEMBL5724914, “Linking interpersonal differences in gut microbiota composition and drug biotransformation activity” (2024).

Assays:
[1] = human gut metagenome, 24 h, 2 µM
[2] = human gut metagenome, 24 h, 2 µM; remark: listed apart in the source
[3] = (§1) The drug is tested on WLS-038 corresponding to human gut metagenome with ENA study accession number: PRJEB37062 and ENA sample accession number: ERS12561745 for biotransformation under anaerobic condition. The drug concentrations were measured over 9 timepoints collected between 0 and 24 hours of incubation by liquid-chromatography-coupled mass spectrometry (LC–MS); settings: 2 µM
[4] = human gut metagenome, 24 h, 2 µM; remark: listed apart in the source
[5] = as §1, with “Z-010” for “WLS-038”, “to” for “to human gut”, “ERS12561810” for “ERS12561745”; settings: 2 µM
[6] = human gut metagenome, 24 h, 2 µM; remark: listed apart in the source
[7] = as §1, with “Z-020” for “WLS-038”, “rabbit” for “human”, “ERS12561819” for “ERS12561745”; settings: 2 µM
[8] = human gut metagenome, 24 h, 2 µM; remark: listed apart in the source
[9] = as §1, with “WLS-007” for “WLS-038”, “ERS12561742” for “ERS12561745”; settings: 2 µM
[10] = human gut metagenome, 24 h, 2 µM; remark: listed apart in the source
[11] = as §1, with “WLS-240” for “WLS-038”, “ERS12561773” for “ERS12561745”; settings: 2 µM
[12] = as §1, with “WLS-098” for “WLS-038”, “ERS12561754” for “ERS12561745”; settings: 2 µM
[13] = human gut metagenome, 24 h, 2 µM; remark: listed apart in the source
[14] = as §1, with “Z-008” for “WLS-038”, “to” for “to human gut”, “ERS12561808” for “ERS12561745”; settings: 2 µM
[15] = as §1, with “WLS-073” for “WLS-038”, “ERS12561749” for “ERS12561745”; settings: 2 µM
[16] = human gut metagenome, 24 h, 2 µM; remark: listed apart in the source
[17] = as §1, with “WLS-220” for “WLS-038”, “ERS12561769” for “ERS12561745”; settings: 2 µM
[18] = human gut metagenome, 24 h, 2 µM; remark: listed apart in the source
[19] = human gut metagenome, 24 h, 2 µM; remark: listed apart in the source
[20] = as §1, with “Z-004” for “WLS-038”, “to” for “to human gut”, “ERS12561804” for “ERS12561745”; settings: 2 µM
Note: call rule not given here.

SMILES | Bacterial Biotransformation [1] | Bacterial Biotransformation [2] | Bacterial Biotransformation [3] | Bacterial Biotransformation [4] | Bacterial Biotransformation [5] | Bacterial Biotransformation [6] | Bacterial Biotransformation [7] | Bacterial Biotransformation [8] | Bacterial Biotransformation [9] | Bacterial Biotransformation [10] | Bacterial Biotransformation [11] | Bacterial Biotransformation [12] | Bacterial Biotransformation [13] | Bacterial Biotransformation [14] | Bacterial Biotransformation [15] | Bacterial Biotransformation [16] | Bacterial Biotransformation [17] | Bacterial Biotransformation [18] | Bacterial Biotransformation [19] | Bacterial Biotransformation [20]
NS(=O)(=O)c1cc2c(cc1Cl)N=C(CSCc1ccccc1)NS2(=O)=O [BENZTHIAZIDE] | Compound NOT metabolized | Compound NOT metabolized | Compound NOT metabolized | Compound NOT metabolized | Compound NOT metabolized | Compound NOT metabolized | Compound NOT metabolized | Compound NOT metabolized | Compound NOT metabolized | Compound NOT metabolized | Compound NOT metabolized | Compound NOT metabolized | Compound NOT metabolized | Compound NOT metabolized | Compound NOT metabolized | Compound NOT metabolized | Compound NOT metabolized | Compound NOT metabolized | Compound NOT metabolized | Compound NOT metabolized
CC(=O)OCC(=O)[C@@]12N=C(C)O[C@@H]1C[C@H]1[C@@H]3CCC4=CC(=O)C=C[C@]4(C)[C@H]3[C@@H](O)C[C@@]12C [DEFLAZACORT] | Compound metabolized | Compound metabolized | Compound metabolized | Compound metabolized | Compound metabolized | Compound metabolized | Compound metabolized | Compound metabolized | Compound metabolized | Compound metabolized | Compound metabolized | Compound metabolized | Compound metabolized | Compound metabolized | Compound metabolized | Compound metabolized | Compound metabolized | Compound metabolized | Compound metabolized | Compound metabolized
Cc1ccc(-c2cc(C(F)(F)F)nn2-c2ccc(S(N)(=O)=O)cc2)cc1 [CELECOXIB] | Compound metabolized | Compound NOT metabolized | Compound metabolized | Compound NOT metabolized | Compound NOT metabolized | Compound NOT metabolized | Compound NOT metabolized | Compound NOT metabolized | Compound metabolized | Compound NOT metabolized | Compound metabolized | Compound NOT metabolized | Compound metabolized | Compound NOT metabolized | Compound metabolized | Compound metabolized | Compound metabolized | Compound NOT metabolized | Compound metabolized | Compound NOT metabolized
CCCc1nn(C)c2c(=O)[nH]c(-c3cc(S(=O)(=O)N4CCN(C)CC4)ccc3OCC)nc12.O=C(O)CC(O)(CC(=O)O)C(=O)O [SILDENAFIL CITRATE] | Compound NOT metabolized | Compound NOT metabolized | Compound NOT metabolized | Compound NOT metabolized | Compound NOT metabolized | Compound metabolized | Compound NOT metabolized | Compound NOT metabolized | Compound NOT metabolized | Compound NOT metabolized | Compound metabolized | Compound NOT metabolized | Compound NOT metabolized | Compound NOT metabolized | Compound NOT metabolized | Compound NOT metabolized | Compound NOT metabolized | Compound NOT metabolized | Compound metabolized | Compound NOT metabolized
CC(C)c1c(C(=O)Nc2ccccc2)c(-c2ccccc2)c(-c2ccc(F)cc2)n1CC[C@@H](O)C[C@@H](O)CC(=O)O [ATORVASTATIN] | Compound metabolized | Compound metabolized | Compound metabolized | Compound NOT metabolized | Compound metabolized | Compound NOT metabolized | Compound NOT metabolized | Compound metabolized | Compound metabolized | Compound metabolized | Compound metabolized | Compound metabolized | Compound NOT metabolized | Compound NOT metabolized | Compound NOT metabolized | Compound metabolized | Compound NOT metabolized | Compound metabolized | Compound metabolized | Compound NOT metabolized
O=C1NCC2(CCN(CCc3ccccc3)CC2)O1 [FENSPIRIDE] | Compound NOT metabolized | Compound NOT metabolized | Compound NOT metabolized | Compound NOT metabolized | Compound NOT metabolized | Compound NOT metabolized | Compound NOT metabolized | Compound NOT metabolized | Compound NOT metabolized | Compound NOT metabolized | Compound NOT metabolized | Compound NOT metabolized | Compound NOT metabolized | Compound NOT metabolized | Compound NOT metabolized | Compound NOT metabolized | Compound NOT metabolized | Compound NOT metabolized | Compound NOT metabolized | Compound NOT metabolized
O=C(CCCN1CCC(O)(c2ccc(Cl)cc2)CC1)c1ccc(F)cc1 [HALOPERIDOL] | Compound metabolized | Compound NOT metabolized | Compound NOT metabolized | Compound NOT metabolized | Compound NOT metabolized | Compound NOT metabolized | Compound NOT metabolized | Compound NOT metabolized | Compound NOT metabolized | Compound metabolized | Compound metabolized | Compound metabolized | Compound NOT metabolized | Compound NOT metabolized | Compound NOT metabolized | Compound NOT metabolized | Compound metabolized | Compound NOT metabolized | Compound NOT metabolized | Compound NOT metabolized
CN1C(=O)CC(C)(c2ccccc2)C1=O (stereo not given) [METHSUXIMIDE] | Compound metabolized | Compound NOT metabolized | Compound NOT metabolized | Compound NOT metabolized | Compound NOT metabolized | Compound NOT metabolized | Compound NOT metabolized | Compound NOT metabolized | Compound NOT metabolized | Compound NOT metabolized | Compound metabolized | Compound NOT metabolized | Compound NOT metabolized | Compound NOT metabolized | Compound NOT metabolized | Compound metabolized | Compound NOT metabolized | Compound NOT metabolized | Compound NOT metabolized | Compound NOT metabolized
